From ChEMBL document CHEMBL4715875, “Evaluation of the in Vivo Aphrodisiac Activity of a Cyclotide Extract from Hybanthus enneaspermus” (2020)
Positions of bridges follow the written chain, without caps; N, C: chain ends. Residues, ends and D or L forms follow the SMILES beside them.

Assays:
Format in all cases: functional
Rattus norvegicus [1] = test: Induction of libido-enhancing activity in Wistar rat assessed as first behavior latency time at 5 mg/kg, po pre-treated for 30 mins followed by female rat introduction and measured up to 3 hrs (reference value: 200 +/- 40 sec); conditions: time min <=210
Rattus norvegicus [2] = test: Induction of libido-enhancing activity in Wistar rat assessed as number of ejaculations at 5 mg/kg, po pre-treated for 30 mins followed by female rat introduction (reference value: 5.5 +/- 0.6); conditions: 0.5 h
Rattus norvegicus [3] = test: Induction of libido-enhancing activity in Wistar rat assessed as intromission latency time at 5 mg/kg, po pre-treated for 30 mins followed by female rat introduction and measured up to 3 hrs (reference value: 270 +/- 68 sec); conditions: time min <=210
Rattus norvegicus [4] = test: Induction of libido-enhancing activity in Wistar rat assessed as copulatory plugs at 5 mg/kg, po pre-treated for 30 mins followed by female rat introduction and measured up to 3 hrs (reference value: 4.2 +/- 0.6 sec); conditions: time min <=210
Rattus norvegicus [5] = test: Induction of libido-enhancing activity in Wistar rat assessed as number of intromission at 5 mg/kg, po pre-treated for 30 mins followed by female rat introduction and measured up to 3 hrs (reference value: 49 +/- 8.5); conditions: time hrs <=3.5
Rattus norvegicus [6] = test: Induction of libido-enhancing activity in Wistar rat assessed as mount frequency at 5 mg/kg, po pre-treated for 30 mins followed by female rat introduction and measured up to 3 hrs (reference value: 5.8 +/- 2.1); conditions: time min <=210
Rattus norvegicus [7] = test: Induction of libido-enhancing activity in Wistar rat assessed as number of mount at 5 mg/kg, po pre-treated for 30 mins followed by female rat introduction and measured up to 1 hr (reference value: 16 +/- 6.9); conditions: time hrs <=1.5
Rattus norvegicus [8] = test: Induction of libido-enhancing activity in Wistar rat assessed as ejaculation latency latency time at 5 mg/kg, po pre-treated for 30 mins followed by female rat introduction and measured up to 3 hrs (reference value: 1300 +/- 320 sec); conditions: time min <=210
Rattus norvegicus [9] = test: Induction of libido-enhancing activity in Wistar rat assessed as ejaculation post interval time at 5 mg/kg, po pre-treated for 30 mins followed by female rat introduction and measured up to 3 hrs (reference value: 760 +/- 50 sec); conditions: time min <=210
Rattus norvegicus [10] = test: Induction of libido-enhancing activity in Wistar rat assessed as number of ejaculations at 5 mg/kg, po pre-treated for 30 mins followed by female rat introduction and measured up to 1 hr (reference value: 2.2 +/- 0.4); conditions: time hrs <=1.5
Rattus norvegicus [11] = test: Induction of libido-enhancing activity in Wistar rat assessed as number of ejaculations at 5 mg/kg, po pre-treated for 30 mins followed by female rat introduction and measured up to 3 hrs (reference value: 1.2 +/- 0.3); conditions: time hrs <=3.5
Rattus norvegicus [12] = test: Induction of libido-enhancing activity in Wistar rat assessed as number of intromission at 5 mg/kg, po pre-treated for 30 mins followed by female rat introduction and measured up to 1 hr (reference value: 63 +/- 7.7); conditions: time hrs <=1.5
Rattus norvegicus [13] = test: Induction of libido-enhancing activity in Wistar rat assessed as number of intromission at 5 mg/kg, po pre-treated for 30 mins followed by female rat introduction and measured up to 2 hrs (reference value: 76 +/- 11); conditions: time hrs <=2.5
Rattus norvegicus [14] = test: Induction of libido-enhancing activity in Wistar rat assessed as number of mount at 5 mg/kg, po pre-treated for 30 mins followed by female rat introduction and measured up to 2 hrs (reference value: 9.1 +/- 3); conditions: time hrs <=2.5
Rattus norvegicus [15] = test: Induction of libido-enhancing activity in Wistar rat assessed as intromission frequency at 5 mg/kg, po pre-treated for 30 mins followed by female rat introduction and measured up to 3 hrs (reference value: 35 +/- 5); conditions: time min <=210
Rattus norvegicus [16] = test: Induction of libido-enhancing activity in Wistar rat assessed as number of mount at 5 mg/kg, po pre-treated for 30 mins followed by female rat introduction and measured up to 3 hrs (reference value: 3.9 +/- 1.2); conditions: time hrs <=3.5
Rattus norvegicus [17] = test: Induction of libido-enhancing activity in Wistar rat assessed as total number of mount at 5 mg/kg, po pre-treated for 30 mins followed by female rat introduction (reference value: 3.9 +/- 1.2); conditions: 0.5 h
Rattus norvegicus [18] = test: Induction of libido-enhancing activity in Wistar rat assessed as number of intromission at 5 mg/kg, po pre-treated for 30 mins followed by female rat introduction (reference value: 170 +/- 32); conditions: 0.5 h
Rattus norvegicus [19] = test: Induction of libido-enhancing activity in Wistar rat assessed as number of ejaculations at 5 mg/kg, po pre-treated for 30 mins followed by female rat introduction and measured up to 2 hrs (reference value: 2.2 +/- 0.3); conditions: time hrs <=2.5
Rattus norvegicus [20] = test: Induction of libido-enhancing activity in Wistar rat assessed as intromission ratio at 5 mg/kg, po pre-treated for 30 mins followed by female rat introduction and measured up to 3 hrs (reference value: 86 +/- 4.1%); conditions: time min <=210

Row | SMILES | Time (Rattus norvegicus [1]) [s] | Activity (Rattus norvegicus [2]) | Time (Rattus norvegicus [3]) [s] | Activity (Rattus norvegicus [4]) | Activity (Rattus norvegicus [5]) | Activity (Rattus norvegicus [6]) | Activity (Rattus norvegicus [7]) | Time (Rattus norvegicus [8]) [s] | Time (Rattus norvegicus [9]) [s] | Activity (Rattus norvegicus [10]) | Activity (Rattus norvegicus [11]) | Activity (Rattus norvegicus [12]) | Activity (Rattus norvegicus [13]) | Activity (Rattus norvegicus [14]) | Activity (Rattus norvegicus [15]) | Activity (Rattus norvegicus [16]) | Activity (Rattus norvegicus [17]) | Activity (Rattus norvegicus [18]) | Activity (Rattus norvegicus [19]) | Activity (Rattus norvegicus [20]) [%]
1 | CC[C@H](C)[C@@H]1NC(=O)[C@H](C)NC(=O)[C@H](C)NC(=O)[C@H]([C@@H](C)O)NC(=O)[C@H](Cc2ccccc2)NC(=O)[C@@H]2CSSC[C@@H](C(=O)N[C@@H](Cc3ccc(O)cc3)C(=O)N[C@@H](CCCCN)C(=O)N[C@@H](CC(N)=O)C(=O)O)NC(=O)[C@H](C(C)C)NC(=O)[C@H](CCCCN)NC(=O)[C@H](CO)NC(=O)[C@H](CCCCN)NC(=O)[C@@H]3CSSC[C@H](NC(=O)[C@H](CO)NC(=O)[C@H](CCC(=O)O)NC(=O)CNC(=O)[C@@H](NC(=O)[C@@H]4CCCN4C(=O)[C@H](Cc4ccccc4)NC(=O)CN)CSSC[C@H](NC(=O)CNC1=O)C(=O)N[C@@H](CO)C(=O)N3)C(=O)N[C@@H](C(C)C)C(=O)N[C@@H](Cc1ccc(O)cc1)C(=O)N[C@@H]([C@@H](C)CC)C(=O)N1CCC[C@H]1C(=O)N2 (H-GFPCGESCVYIPCFTAAIGCSCKSKVCYKN-OH; disulfide 4-20, 8-22, 13-27) | 76 | 6.5 | 78 | 5.5 | 44 | 3.1 | 3.2 | 1000 | 690 | 1.5 | 2 | 69 | 67 | 5.8 | 28 | 9.7 | 19 | 180 | 3 | 91
2 | CC(=O)CC(O)(CC(C)=O)C(C)=O.CCCc1nn(C)c2c(=O)nc(-c3cc(S(=O)(=O)N4CCN(C)CC4)ccc3OCC)[nH]c12 | 96 | 7.7 | 96 | 6 | 38 | 4.7 | 8.3 | 940 | 860 | 2 | 2.2 | 65 | 63 | 6.7 | 23 | 2.3 | 26 | 180 | 2.8 | 85
